Reference: the PolyMetriX glass transition set
± gives the standard deviation of the reports.

Going from *Oc1ccc(OC(=O)c2ccc(Oc3ccc(C(*)=O)cc3)cc2)c2ccccc12 (repeat unit) to *Oc1ccc(C(c2ccc(OC(=O)c3ccccc3-c3ccccc3C(*)=O)cc2)(C(F)(F)F)C(F)(F)F)cc1 (repeat unit), the glass transition temperature falls from 166.00 °C to 162.00 °C.

First: *CC(*)C(=O)OC(C)CC (repeat unit) [Poly(sec-butyl acrylate)]
Second: *CC(*)c1ccc(OCC)cc1 (repeat unit)
The glass transition temperature of the first is lower: -20 ± 1.8 °C for the first, 86.00 °C for the second.

Going from *c1ccc2c(c1)C(CCCCCCCC)(CCCCCCCC)c1cc(-c3cc(F)c(*)cc3F)ccc1-2 (repeat unit) to *Oc1ccc(CC(NC(=O)CCc2ccc(OC(=O)CCCCC(*)=O)cc2)C(=O)OCCCCCCCCCCCC)cc1 (repeat unit), the glass transition temperature falls from 34.00 °C to 22.00 °C.

Compared with *c1cccc(NC(=O)c2cccc(C(=O)Nc3cccc(-n4c(=O)c5cc6c(=O)n(*)c(=O)c6cc5c4=O)c3)c2)c1 (repeat unit), *c1cccc(C(=O)Nc2ccc(Oc3cccc(Oc4ccc(NC(=O)c5cccc(N6C(=O)c7ccc(-c8ccc9c(c8)C(=O)N(*)C9=O)cc7C6=O)c5)cc4)c3)cc2)c1 (repeat unit) is lower in glass transition temperature: 338.00 °C for the first, 253.00 °C for the second.

Compared with *=Nc1cccc(/N=C(\c2ccccc2)c2ccc(C(=*)c3ccccc3)cc2)c1 (repeat unit), *c1ccc(Oc2ccc(Oc3ccc(-c4nc(*)nc(-c5ccccc5)n4)cc3)cc2)cc1 (repeat unit) is higher in glass transition temperature: 179.00 °C for the first, 244.00 °C for the second.

First: *C(=O)Nc1cccc(NC(=O)c2ccc3[nH]c(-c4cc(-c5nc6cc(*)ccc6[nH]5)cc(N5C(=O)c6ccccc6C5=O)c4)nc3c2)c1 (repeat unit)
Second: *C(=O)c1ccc2c(c1)C(=O)N(c1ccc(-c3ccc(N4C(=O)c5ccc(*)cc5C4=O)c(C)c3)cc1C)C2=O (repeat unit)
The glass transition temperature of the first is lower: 304.00 °C for the first, 365.00 °C for the second.

First: *Oc1ccc(C(C)(C)c2ccc(OC(=O)c3cccc(C(F)(F)C(F)(F)C(F)(F)c4cccc(C(*)=O)c4)c3)cc2)cc1 (repeat unit)
Second: *Oc1ccc(C(c2ccc(OC(=O)c3ccc(C(c4ccc(C(*)=O)cc4)(C(F)(F)F)C(F)(F)F)cc3)cc2)(C(F)(F)F)C(F)(F)F)cc1 (repeat unit)
The glass transition temperature of the first is lower: 122.00 °C for the first, 135.00 °C for the second.

Going from *CC(C)(C)COC(=O)NC(=O)c1cccc(C(=O)NC(=O)O*)c1 (repeat unit) to *Nc1ccc(NC(=O)CCCC(*)=O)cc1 (repeat unit), the glass transition temperature rises from 66.00 °C to 135.00 °C.

Compared with *Nc1ccccc1CCc1ccccc1NC(=O)Nc1ccc(CCc2ccc(NC(*)=O)cc2)cc1 (repeat unit), *Oc1ccc(C(CC)(c2ccccc2)c2ccc(OC(=O)CCCCCCCCC(*)=O)cc2)cc1 (repeat unit) is lower in glass transition temperature: 235.00 °C for the first, 88.00 °C for the second.

First: *CC(O)COc1ccc(C(C)CC(C)(C)c2ccc(O*)cc2)cc1 (repeat unit)
Second: *Oc1ccc(C(C)(C)c2cc(Cl)c(OC(*)=O)c(Cl)c2)cc1 (repeat unit)
The glass transition temperature of the first is lower: 75.00 °C for the first, 186.00 °C for the second.

First: *CCC[Si](*)(c1cccc2ccccc12)C1CCCCC1 (repeat unit)
Second: *CC(*)c1ccccc1C(=O)N(C)C (repeat unit)
The glass transition temperature of the first is lower: 47.50 °C for the first, 190.00 °C for the second.

Going from *Oc1c(Cl)cc(C(=C(Cl)Cl)c2cc(Cl)c(OC(*)=O)c(Cl)c2)cc1Cl (repeat unit) to *CCOCCOCCN1C(=O)c2ccc(C(=O)Oc3ccc4cc(OC(=O)c5ccc6c(c5)C(=O)N(*)C6=O)ccc4c3)cc2C1=O (repeat unit), the glass transition temperature falls from 250.00 °C to 105.00 °C.

First: *C(=O)Nc1ccc(Oc2ccc(-c3ccc(Oc4ccc(NC(=O)c5ccc6c(c5)C(=O)N(c5ccc(Oc7ccc(C(C)(C)c8ccc(Oc9ccc(N%10C(=O)c%11ccc(*)cc%11C%10=O)cc9)cc8)cc7)cc5)C6=O)cc4)cc3)cc2)cc1 (repeat unit)
Second: *C(=O)c1ccc2c(c1)C(=O)N(c1ccc(C(=O)Nc3ccc(Oc4ccc(NC(=O)c5ccc(NC(=O)Nc6ccc(Cc7ccc(NC(=O)Nc8ccc(C(=O)Nc9ccc(Oc%10ccc(NC(=O)c%11ccc(N%12C(=O)c%13ccc(*)cc%13C%12=O)cc%11)cc%10)cc9)cc8)cc7)cc6)cc5)cc4)cc3)cc1)C2=O (repeat unit)
The glass transition temperature of the first is higher: 283.00 °C for the first, 229.00 °C for the second.

Compared with *CCCCNC(=O)C(OC)C(OC)C(=O)N* (repeat unit), *CCCCCC(Cl)C(*)Cl (repeat unit) is lower in glass transition temperature: 100.00 °C for the first, -17.00 °C for the second.

First: *c1ccc(C(c2ccccc2)c2ccc(N3C(=O)c4ccc(-c5ccc6c(c5)C(=O)N(*)C6=O)cc4C3=O)cc2)cc1 (repeat unit)
Second: *c1ccc(O)c(N2C(=O)c3ccc(Oc4ccc(C(C)(C)c5ccc(Oc6ccc7c(c6)C(=O)N(*)C7=O)cc5)cc4)cc3C2=O)c1 (repeat unit)
The glass transition temperature of the first is higher: 315.00 °C for the first, 246.00 °C for the second.

First: *Oc1ccc(S(=O)(=O)c2ccc(Oc3c(C)cc(-c4cc(C)c(*)c(C)c4Br)c(Br)c3C)cc2)cc1 (repeat unit)
Second: *c1ccc(Oc2ccc(Oc3ccc(NC(=O)c4cccc(Oc5ccc6c(c5)C(=O)N(*)C6=O)c4)cc3)cc2)cc1 (repeat unit)
The glass transition temperature of the first is higher: 298.20 °C for the first, 213.00 °C for the second.

Compared with *c1cccc(Cc2cccc(N3C(=O)c4ccc([Si](C)(C)O[Si](C)(C)c5ccc6c(c5)C(=O)N(*)C6=O)cc4C3=O)c2)c1 (repeat unit), *CCCOCCCCOCCCN1C(=O)c2ccc(C(=O)Oc3ccc(OC(=O)c4ccc5c(c4)C(=O)N(*)C5=O)cc3)cc2C1=O (repeat unit) is lower in glass transition temperature: 217.00 °C for the first, 56.00 °C for the second.

Going from *CC(F)(F)C1(F)CC(C(O)(C(F)(F)F)C(F)(F)F)CC1* (repeat unit) to *Oc1ccc(C2(c3ccc(Oc4ccc(-c5ccc(-c6ccc(*)c(C(F)(F)F)c6)cc5)cc4C(F)(F)F)cc3)c3ccccc3-c3ccccc32)cc1 (repeat unit), the glass transition temperature rises from 118.00 °C to 237.00 °C.

Compared with *CC(*)c1c(C)cc(C)cc1C (repeat unit), *c1cc(CCCC)c(*)s1 (repeat unit) is lower in glass transition temperature: 126.00 °C for the first, 54.50 ± 6.4 °C for the second.

Going from *Oc1ccc(CC(NC(=O)Cc2ccc(OC(=O)COCC(*)=O)cc2)C(=O)OCCCCCCCC)cc1 (repeat unit) to *c1ccc(Oc2ccc(-c3nnc(*)o3)cc2)cc1 (repeat unit), the glass transition temperature rises from 51.00 °C to 240.00 °C.

First: *c1cc(C)c(/N=C/c2ccc(OCc3ccc(COc4ccc(/C=N/c5cc(C)c(N6C(=O)c7ccc8c9ccc%10c%11c(ccc(c%12ccc(c7c8%12)C6=O)c%119)C(=O)N(*)C%10=O)cc5C)cc4OC)cc3)c(OC)c2)cc1C (repeat unit)
Second: *C(=O)c1ccc2nc(-c3ccccc3)c(-c3ccc(N4C(=O)c5ccc(C(=O)c6ccc7c(c6)C(=O)N(c6ccc(-c8nc9cc(*)ccc9nc8-c8ccccc8)cc6)C7=O)cc5C4=O)cc3)nc2c1 (repeat unit)
The glass transition temperature of the first is lower: 145.00 °C for the first, 255.00 °C for the second.

Compared with *c1ccc(Oc2ccc(N3C(=O)c4c(c(-c5ccccc5)c(-c5ccc(Oc6ccc(-c7c(-c8ccccc8)c8c(c(-c9ccccc9)c7-c7ccccc7)C(=O)N(*)C8=O)cc6)cc5)c(-c5ccccc5)c4-c4ccccc4)C3=O)cc2)cc1 (repeat unit), *OC(*)CCCCCC (repeat unit) is lower in glass transition temperature: 360.00 °C for the first, -116.00 °C for the second.
